# Activity calls are given as the source filed them. The rule behind the calls is not given here.
# Target: Chaperone protein DnaK (Escherichia coli (strain K12)) (UniProt P0A6Y8)
# Assay: binders of DnaK substrate-binding domain, biophysical, NMR, chaperone (AID 1033)
# Settings: Purified DnaK SBD, NMR ligand binding
# Sequence of Chaperone protein DnaK (Escherichia coli (strain K12)) (P0A6Y8 whole entry, looked up, the tested form may be a part): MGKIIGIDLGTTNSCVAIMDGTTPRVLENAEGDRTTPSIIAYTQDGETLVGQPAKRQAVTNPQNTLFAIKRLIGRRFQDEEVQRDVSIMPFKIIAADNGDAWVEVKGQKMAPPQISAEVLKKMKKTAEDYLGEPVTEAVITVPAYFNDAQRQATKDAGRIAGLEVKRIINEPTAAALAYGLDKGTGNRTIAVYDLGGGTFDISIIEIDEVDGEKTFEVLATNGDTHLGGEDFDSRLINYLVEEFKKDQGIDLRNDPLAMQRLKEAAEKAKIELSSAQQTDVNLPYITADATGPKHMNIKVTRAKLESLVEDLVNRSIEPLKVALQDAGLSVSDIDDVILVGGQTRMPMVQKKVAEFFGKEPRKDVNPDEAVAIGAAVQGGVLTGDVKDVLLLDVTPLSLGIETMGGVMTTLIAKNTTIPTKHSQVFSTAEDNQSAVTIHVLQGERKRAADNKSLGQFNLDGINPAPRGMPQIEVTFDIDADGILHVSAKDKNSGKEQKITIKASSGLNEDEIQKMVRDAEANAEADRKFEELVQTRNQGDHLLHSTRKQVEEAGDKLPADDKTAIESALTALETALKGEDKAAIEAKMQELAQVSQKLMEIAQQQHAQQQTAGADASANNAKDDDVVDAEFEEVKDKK
row,SMILES,Kd
1,Cc1cc(C(=O)N2CCN(c3ncccn3)CC2)c(C)o1,> 4 mM (inactive)
2,c1ccc(-c2nnc(CNCc3ccco3)o2)cc1,> 4 mM (inactive)
3,Cc1ccc(CN2C3=NC(=O)CN3c3ccccc32)cc1,> 4 mM (inactive)
4,COc1ccc(C(=O)NNC(=S)NC(C)=O)cc1,> 4 mM (inactive)
5,COc1ccc2[nH]c(O)c(NC(C)=O)c2c1,> 4 mM (inactive)
6,CS(=O)(=O)Nc1ccc(C(=O)N2CCCCC2)cc1,> 4 mM (inactive)
7,Cc1ccc(Nc2nc(N)nc(CC#N)n2)cc1,> 4 mM (inactive)
8,O=C(O)Cn1c(C(F)(F)F)nc2ccccc21,> 4 mM (inactive)
9,NC(=O)C1CCN(C(=S)c2ccccc2)CC1,> 4 mM (inactive)
10,CC(C)C(=O)NCC(c1ccco1)N1CCOCC1 (centres undefined),> 4 mM (inactive)
11,CCOC(=O)C1CCN(Cc2ccccc2)CC1,> 4 mM (inactive)
12,COc1ccc(-c2cc(=O)c3c(O)c(OC)c(O[C@H]4O[C@H](CO[C@@H]5O[C@@H](C)[C@H](O)[C@@H](O)[C@H]5O)[C@@H](O)[C@H](O)[C@H]4O)cc3o2)cc1,> 4 mM (inactive)
13,COc1cc(N)ccc1NC(=O)c1cccs1,> 4 mM (inactive)
14,Nc1ncnc(Nc2ccccc2C(F)(F)F)n1,> 4 mM (inactive)
15,O=C(Nc1ccc2c(c1)OCCO2)c1c(F)cccc1F,> 4 mM (inactive)
16,NC(=O)NC1C=CS(=O)(=O)C1 (centres undefined),> 4 mM (inactive)
17,O=C(CSc1cccc2cccnc12)N1CCCC1,> 4 mM (inactive)
18,CC1=C2C(O)C(=O)OC3CC4C(C)(C)C(=O)C=C[C@]4(C)C(CC1)[C@]23C (some centres undefined),> 4 mM (inactive)
19,CC(=O)N=c1cccc(NC(C)=O)n1O,> 4 mM (inactive)
20,C=C1C([C@]2(C)C(CC(=O)OC)[C@@](C)(COC(C)=O)OC(=O)C[C@@H]2OC(C)=O)[C@@H](OC=O)[C@H](OC(=O)C(O)C(C)CC)[C@@]2(C)[C@H](c3ccoc3)CC(=O)C12O (some centres undefined),> 4 mM (inactive)
21,NC(=O)C1CC2C=CC1C2 (centres undefined),> 4 mM (inactive)
22,OCc1cccs1,> 4 mM (inactive)
23,O=C(O)c1cccc2c1OCCO2,> 4 mM (inactive)

row,SMILES,Kd
1,NC12CC3CC(C1)CC(CC(=O)O)(C3)C2,> 4 mM (inactive)
2,NC(=O)c1oc2ccccc2c1N,> 4 mM (inactive)
3,CCCC(=O)N1CCSCC1,> 4 mM (inactive)
4,CC1=C(CCC(=O)O)c2cc3nc(cc4[nH]c(cc5[nH]c(cc1n2)c(C)c5C(C)O)c(C)c4C(C)O)C(C)=C3CCC(=O)O (centres undefined),> 4 mM (inactive)
5,CCOC(=O)c1c(C)cc(O)cc1O,> 4 mM (inactive)
6,Cc1cc(O)cc(O)c1C(=O)O,> 4 mM (inactive)
7,c1cc(CNc2ccc3c(c2)OCCO3)ccn1,> 4 mM (inactive)
8,CCC[C@H]1CC2=C(C[C@@H](CC)CC3=C1C(=O)OC3=O)C(=O)OC2=O,> 4 mM (inactive)
9,C=C1C[C@]23C[C@@]1(O)CC[C@H]2[C@@]12C=C[C@H](O)C(C)(C(=O)O1)[C@H]2[C@@H]3C(=O)O,> 4 mM (inactive)
10,O=C(O)c1ccc2c(c1)OCCO2,> 4 mM (inactive)
11,O=C(Oc1ccc(-c2nnco2)cc1)N1CCOCC1,> 4 mM (inactive)
12,CSc1ccn(CCC(=O)O)c(=O)n1,> 4 mM (inactive)
13,Oc1ccccc1C(=S)N1CCCCCC1,> 4 mM (inactive)
14,COn1c(=O)c(-c2ccco2)[n+]([O-])c2ccccc21,> 4 mM (inactive)
15,Cc1cccc(NC(=O)Nc2cc(C)on2)c1,> 4 mM (inactive)
16,COc1cccc(-c2nc(-c3ccccn3)no2)c1OC,> 4 mM (inactive)
17,O=C1C[C@@H](c2ccc(O)cc2)Oc2cc(O)cc(O)c21,> 4 mM (inactive)
18,Cc1nnc2sc(-c3ccco3)nn12,> 4 mM (inactive)
19,O=c1c(O)c(-c2ccccc2)oc2cc(O)ccc12,> 4 mM (inactive)
20,O=C(CC1CCCCC1)N1CCN(c2ccccn2)CC1,> 4 mM (inactive)
21,COc1ccc(/C=C2\NC(=S)N(C)C2=O)cc1O,> 4 mM (inactive)
22,NC(=O)CSc1nnnn1-c1ccccc1,> 4 mM (inactive)
23,O=C1CSC(=Nc2ccc(C(=O)O)cc2)N1,> 4 mM (inactive)

row,SMILES,Kd
1,Cc1nn(-c2ccccc2)c(Cl)c1C(N)=O,> 4 mM (inactive)
2,CCCc1cc2c(c(NC(C)=O)n1)c(=O)oc1ccccc12,> 4 mM (inactive)
3,Cn1c(O)c(C=NCC2CCNCC2)c(=O)n(C)c1=O,> 4 mM (inactive)
4,Cc1cc(NC(=O)c2ccc3c(c2)OCO3)no1,> 4 mM (inactive)
5,COc1ccc(Cc2nccc3cc(OC)c(OC)cc23)cc1OC,> 4 mM (inactive)
6,O=C(CSc1ncccn1)NCc1ccco1,> 4 mM (inactive)
7,O=C1CCN(c2ccccc2)N1,> 4 mM (inactive)
8,Cc1cc(C)n2nc(SCC(=O)c3ccccc3)nc2n1,> 4 mM (inactive)
9,Cn1cnc2cc(NC(=O)c3ccco3)ccc21,> 4 mM (inactive)
10,COc1cc2c(cc1O)CCNC2C (centres undefined),> 4 mM (inactive)
11,O=C(O)C1COc2ccccc2C1 (centres undefined),> 4 mM (inactive)
12,CC12CN3CC(C)(CN(C1)C3c1cccs1)C2O (centres undefined),> 4 mM (inactive)
13,C=C1CSc2nc(=O)c3c(C)c(C)sc3n21,> 4 mM (inactive)
14,Cc1cc(C)n2c(SCc3cccs3)nnc2n1,> 4 mM (inactive)
15,NCC1COc2ccccc2O1 (centres undefined),> 4 mM (inactive)
16,C[C@@H]1CC[C@@]2(OC1)OC1C(O)C3C4CC[C@H]5C[C@H](O[C@@H]6O[C@H](CO)[C@H](O[C@@H]7O[C@H](CO)[C@@H](O)[C@H](O[C@@H]8OC[C@@H](O)[C@H](O)[C@H]8O)[C@H]7O[C@@H]7O[C@H](CO)[C@H](O)[C@H](O[C@@H]8O[C@H](CO)[C@@H](O)[C@H](O)[C@H]8O)[C@H]7O)[C@H](O)[C@H]6O)[C@H](O)C[C@]5(C)C4CC[C@]3(C)C1[C@@H]2C (some centres undefined),> 4 mM (inactive)
17,CCC(C)C(=O)c1c(O)c(C)c2oc3c(C)c(O)c(C(=O)C(C)CC)c(O)c3c2c1O (centres undefined),> 4 mM (inactive)
18,N#Cc1c(N)c(C(=O)c2ccccc2)n2c1CCC2,> 4 mM (inactive)
19,CC(C(N)=O)N1C(=O)c2ccccc2C1=O (centres undefined),> 4 mM (inactive)
20,COC(=O)C[C@@H]1C2(C)C(=O)[C@@H](CC3C2CC[C@]2(C)C3CC(=O)O[C@H]2c2ccoc2)[C@H](OC(C)=O)C1(C)C (some centres undefined),> 4 mM (inactive)
21,O=C1CN(C(=O)c2ccccc2)c2ccccc2N1,> 4 mM (inactive)
22,CC(=O)c1cc(-c2nc3ccccc3n2C)n(C)c1,> 4 mM (inactive)
23,COCC(=O)Nc1c(C(N)=O)oc2ccccc12,> 4 mM (inactive)

row,SMILES,Kd
1,O=c1cc(CO)oc(CN2CCCCC2)c1O,> 4 mM (inactive)
2,O=C1CN(c2ccccc2)CC(=O)N1,> 4 mM (inactive)
3,O=C1CCCc2c(O)cccc21,> 4 mM (inactive)
4,CCNC(CC(=O)Nc1ccc(F)cc1)C(=O)O (centres undefined),> 4 mM (inactive)
5,CC(=O)Nc1ccc(Cl)c(C(N)=O)c1,> 4 mM (inactive)
6,O=C(Nc1nc2ccccc2s1)c1ccc(=O)[nH]n1,> 4 mM (inactive)
7,N#CCCn1c(=O)oc2ccccc21,> 4 mM (inactive)
8,O=C1CCCC(=O)N1Cc1ccco1,> 4 mM (inactive)
9,OCc1ccc(-c2cccs2)s1,> 4 mM (inactive)
10,Cc1ccc(C(C)C)cc2c(C)ccc1-2,> 4 mM (inactive)
11,O=C(COc1ccccc1O)NCCO,> 4 mM (inactive)
12,COc1ccc2c(c1OC)C(=O)O[C@@H]2[C@@H]1c2cc3c(cc2CCN1C)OCO3,> 4 mM (inactive)
13,COc1ccc(Cl)cc1-c1nc(-c2ccncc2)no1,> 4 mM (inactive)
14,CN(C)C(=O)CSc1cccc2cccnc12,> 4 mM (inactive)
15,CCSc1nc(N)c(NC(=O)c2ccco2)c(=O)[nH]1,> 4 mM (inactive)
16,Cc1cccc(CO)n1,> 4 mM (inactive)
17,CC(C)(C)C(=O)N1CCCC1C(=O)O (centres undefined),> 4 mM (inactive)
18,CC(C)(C)c1cc(CN)c(C(=O)O)o1,> 4 mM (inactive)
19,O=C1C2CC=CCC2C(=O)N1c1ccccc1 (centres undefined),> 4 mM (inactive)
20,NCc1ccc(-n2cccc2)cc1,> 4 mM (inactive)
21,Clc1ccccc1OCc1nc(-c2ccncc2)no1,> 4 mM (inactive)
22,S=c1oc(-c2ccncc2)nn1CCc1ccncc1,> 4 mM (inactive)
23,O=C1CCCN1C(=O)CN1CCOCC1,> 4 mM (inactive)

row,SMILES,Kd
1,O=C(Nc1ccccc1CO)c1ccccc1F,> 4 mM (inactive)
2,Cc1noc(-c2ccccc2)c1CO,> 4 mM (inactive)
3,Cc1nc(N2CCOCC2)[nH]c(=O)c1C,> 4 mM (inactive)
4,Cn1c(=O)n(-c2cccc(Cl)c2)c(=O)n1C,> 4 mM (inactive)
5,O=C(CC1SC(=O)NC1=O)Nc1ccccc1 (centres undefined),> 4 mM (inactive)
6,O=c1[nH]c(=S)c2c(n1-c1ccccc1)CCC2,> 4 mM (inactive)
7,CC(=O)N1CCc2cc(NC(=O)c3ccc(C)cc3)ccc21,> 4 mM (inactive)
8,CS(C)=C1C(=O)NC(=O)N(c2ccccc2)C1=O,> 4 mM (inactive)
9,C=C1C(N)CC2CC1C2(C)C (centres undefined),> 4 mM (inactive)
10,CC[C@@]1(O)C[C@H](O)c2c(cc3c(c2O)C(=O)c2c(O)ccc(O)c2C3=O)[C@H]1C(=O)OC,> 4 mM (inactive)
11,CC1(C)CC(=O)c2sc(N)nc2C1,> 4 mM (inactive)
12,NCc1ccc(S(=O)(=O)O)cc1,> 4 mM (inactive)
13,CCOc1cccc(C(=O)c2ccc(O)c(O)c2O)c1,> 4 mM (inactive)
14,CC[C@H](/C=C/C(C)C1CCC2C3CCC4=CC(=O)CC[C@]4(C)C3CC[C@]12C)C(C)C (some centres undefined),> 4 mM (inactive)
15,CC(=O)Nc1cccc(-c2nnc3n2CC(C)S3)c1 (centres undefined),> 4 mM (inactive)
16,O=[N+]([O-])c1cccc(-c2nnco2)c1,> 4 mM (inactive)
17,NC(=O)Cn1cnc2ccccc21,> 4 mM (inactive)
18,C=CCNC(=O)c1ccc(Cl)cc1Cl,> 4 mM (inactive)
19,Nc1nc2ncc(=O)[nH]c2c(=O)[nH]1,> 4 mM (inactive)
20,CN1C(CC(=O)c2ccccc2)CCCC1CC(O)c1ccccc1 (centres undefined),> 4 mM (inactive)
21,Cc1cc(C(=O)Nc2cccnc2)no1,> 4 mM (inactive)
22,O=C1N=C(N2CCOCC2)S/C1=C\c1cccnc1,> 4 mM (inactive)

# Reference: PubChem BioAssay AID1033 (Sanford-Burnham Center for Chemical Genomics, 2008)
